“And” between values parts separate entries of the source, which are not always exact repeats. Identical values can stand only once.
Experiments:
[1] = system: mice; assay: Single-dose oral toxicity; format: in vivo, mouse
Procedure: Single doses up to 300-400 mg/kg and 800 mg/kg appeared to be generally well tolerated in monkeys and rats, respectively (one monkey treated with 400 mg/kg died in the 2-week GLP study on Day 1 of dosing). […] In mice, mortality was consistently seen following single doses 150 mg/kg. Preliminary 5-day repeat-dose range-finding studies were conducted in mice, rats and monkeys. The definitive 14-day studies in mouse and monkey yielded generally similar results to those observed in the 5-day studies.

[2] = system: CD-1 mice; assay: 14-day oral gavage GLP toxicity study in CD-1 mice; format: in vivo, mouse
Procedure: All test article-treated animals underwent up-titration of dosage levels prior to reaching the maximum daily dose, which was administered for 14 consecutive days. […] The dose volume was 10 mL/kg for all groups. Groups 1 and 4 each consisted of 25 animals/sex and Groups 2-3 each consisted of 20 animals for each sex. Following 14 days of dose administration, 15 mice/sex/toxicology group were euthanized; the remaining 5, (10 for the control and high dose group) mice/sex/toxicology group were euthanized following a 14-day nondosing (recovery) period. Following the final blood collection (study day 13), all toxicokinetic animals (from a satellite group of 18 animals/sex/dose level) were euthanized.
For toxicology assessment, all animals were observed twice daily for mortality and moribundity. Clinical observations were recorded daily, and detailed physical examinations were conducted weekly. Body weights and food consumption were recorded twice weekly. Body temperature was recorded prior to dosing and following dosing at the time that post-dosing clinical observations were conducted. Functional observational battery (FOB) data were recorded for all animals near the start of the treatment period, near the end of the treatment period, and near the end of the recovery period. Ophthalmic examinations were performed during pretest and near the end of the dosing period. At the primary necropsy 10 animals/sex/group and at the recovery necropsy 5 animals/sex/group, were selected for complete necropsies, clinical pathology assessment (hematology and serum chemistry), organ weight collection, and microscopic examination of a full list of tissues. At each termination interval, 5 animals/sex/group were assigned for neuropathology assessments that involved perfusion fixation, comprehensive sectioning of the brain and collection of selected peripheral nerves, and the employment of special stains used to detect subtle neuronal injury.

[3] = system: male Sprague Dawley rats; assay: Modified Irwin test, definitive GLP study, male rats; format: in vivo, rat
Procedure: Only male rats were utilized in the assay, as no significant sex-specific effects have been noted in prior toxicology studies.
The dose volume for all groups was 20 mL/kg. Observations for the Irwin test were performed pre-dose (on the day of dosing) and at approximately (±5 minutes) 30, 90, 150, and 240 minutes post-dosing. Body temperature was measured and recorded during each Irwin observation period.

[4] = Solubility; format: physicochemical
Description: 18-MC HCl can be supplied as a dry powder packaged in double plastic bags in an HDPE bottle with desiccant. The 18-MC HCl can be formulated at the clinical site into a solution for dosing patients. […] Based on the properties of the compound, it can also be formulated in a solid oral formulation (tablet, capsule, sachets, granules, etc.)
Most preferably, an oral dose of the composition is used. An oral dosing formulation was validated by a GLP study.

[5] = target: Mu opioid receptor (Homo sapiens, UniProt P35372); assay: In vitro radio-ligand assay; format: binding; settings: 10 μM
Chain of Mu opioid receptor (P35372 whole entry, species assumed): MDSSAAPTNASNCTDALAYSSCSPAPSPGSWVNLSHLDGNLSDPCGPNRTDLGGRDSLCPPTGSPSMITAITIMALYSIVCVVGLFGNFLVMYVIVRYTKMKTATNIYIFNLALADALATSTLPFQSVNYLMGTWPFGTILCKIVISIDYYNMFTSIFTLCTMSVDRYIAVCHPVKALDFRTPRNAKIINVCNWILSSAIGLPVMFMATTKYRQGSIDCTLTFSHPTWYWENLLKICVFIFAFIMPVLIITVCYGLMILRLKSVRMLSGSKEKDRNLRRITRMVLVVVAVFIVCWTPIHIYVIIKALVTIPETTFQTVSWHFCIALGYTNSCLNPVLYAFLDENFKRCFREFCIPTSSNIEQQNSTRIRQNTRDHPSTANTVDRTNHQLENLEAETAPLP
Procedure: (§1) The binding potential of 18-MC with 64 neurotransmitter-related binding sites was evaluated (TABLE 2).

[6] = system: adrenergic alpha-1 receptor; assay: In vitro radio-ligand assay; format: binding; settings: 10 μM
Procedure: as §1

[7] = system: sodium site 2 channel; assay: In vitro radio-ligand assay; format: binding; settings: 10 μM
Procedure: as §1

[8] = system: plasma protein; assay: Plasma protein binding; format: in vitro ADME, Dog
Description: (§2) There is no information on the protein binding of any of the metabolites.

[9] = system: plasma protein; assay: Plasma protein binding; format: in vitro ADME, Monkey
Description: as §2

[10] = target: CYP2D6 (Homo sapiens, UniProt P10635); settings: recombinant enzyme
Chain of CYP2D6 (P10635 whole entry): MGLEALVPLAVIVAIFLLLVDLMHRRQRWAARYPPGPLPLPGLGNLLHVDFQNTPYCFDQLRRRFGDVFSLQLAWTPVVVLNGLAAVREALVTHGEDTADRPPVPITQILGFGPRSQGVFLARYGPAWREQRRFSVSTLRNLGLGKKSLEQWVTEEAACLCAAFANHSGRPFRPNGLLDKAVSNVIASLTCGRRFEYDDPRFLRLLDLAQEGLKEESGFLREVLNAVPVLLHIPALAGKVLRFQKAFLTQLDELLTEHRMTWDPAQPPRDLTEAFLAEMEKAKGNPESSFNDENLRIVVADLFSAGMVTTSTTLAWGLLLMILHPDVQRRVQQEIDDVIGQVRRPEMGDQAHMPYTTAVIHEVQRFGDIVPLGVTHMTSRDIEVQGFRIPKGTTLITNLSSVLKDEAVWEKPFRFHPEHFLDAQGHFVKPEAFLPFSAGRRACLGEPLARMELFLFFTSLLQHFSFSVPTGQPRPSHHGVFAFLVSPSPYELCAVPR
Procedure: (§3) Control incubations were performed for each assay with appropriate positive inhibitory controls.

[11] = target: CYP2B6 (Homo sapiens, UniProt P20813); settings: recombinant enzyme
Chain of CYP2B6 (P20813 whole entry): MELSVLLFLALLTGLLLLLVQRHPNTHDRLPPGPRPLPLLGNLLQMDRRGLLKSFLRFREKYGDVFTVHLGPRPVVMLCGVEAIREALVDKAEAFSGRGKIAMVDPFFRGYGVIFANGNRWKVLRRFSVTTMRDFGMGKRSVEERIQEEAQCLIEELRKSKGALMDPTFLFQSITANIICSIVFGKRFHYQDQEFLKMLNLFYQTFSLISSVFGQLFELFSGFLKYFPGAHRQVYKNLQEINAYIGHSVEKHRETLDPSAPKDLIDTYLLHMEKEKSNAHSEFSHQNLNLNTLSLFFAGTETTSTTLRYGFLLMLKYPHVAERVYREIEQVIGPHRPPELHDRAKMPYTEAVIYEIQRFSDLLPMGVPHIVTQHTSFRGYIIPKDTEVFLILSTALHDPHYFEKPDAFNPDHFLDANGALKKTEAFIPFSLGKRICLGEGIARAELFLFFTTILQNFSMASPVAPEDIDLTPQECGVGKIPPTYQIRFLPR
Procedure: as §3

[12] = system: plasma protein; assay: Plasma protein binding, all species tested; format: in vitro ADME
Procedure: In all the species tested in pre-clinical studies, 18-MC is rapidly absorbed following oral administration with Tmax occurring in less than 0.5 hours following oral administration. After oral administration, the elimination of 18-MC is multi-compartmental. In plasma, 18-MC is highly protein bound (92% to 98%). 18-MC is also rapidly and extensively metabolized, presumably by first pass metabolism. At least […] different metabolites have been detected both in vitro and in vivo, further described below (M1-M9, P1-P3). The major metabolites (those with exposure greater than 10% of the total drug related material) appear to change with the dose and duration of dosing. Major metabolites include M2, M4, M5, M8, M9 and P2 depending on the animal species tested, and the dose and duration of dosing.
as §2

## COCCC1CC2CN3CCc4c([nH]c5ccccc45)C(C(=O)OC)(C2)C13.Cl (centres unmarked) [18-MC HCl, 18-Methoxycoronaridine hydrochloride]
[1]
  single doses with mortality consistently seen: 150 mg/kg
[2]; 100 mg/kg/day group, Days −1 and 12
  mortality: two male mice in the 100 mg/kg/day group were found dead
[2]; female mice, 100 mg/kg/day
  HED of well tolerated dose: 8 mg/kg/day
[2]; females
  NOAEL: 100 mg/kg/day
[2]; male mice, 50 mg/kg/day
  HED of well tolerated dose: 4 mg/kg/day
[2]; males
  NOAEL: 50 mg/kg/day
[2]; up to 100 mg/kg/day, except non-adverse decreased body temperature
  neurobehavioral findings, Functional Observational Battery: no noted neurobehavioral findings
[3]; 200 mg/kg
  Irwin: Increased pupil diameter, occurrence(s)/No. of males: 1/6
  Irwin: Increased touch response, occurrence(s)/No. of males: 1/6
[3]; 200 mg/kg p.o.
  mean decrease in body temperature from pre-dose: up to 1.5 °C
[3]; 400 mg/kg
  Irwin: Abnormal gait (walking low on limbs), occurrence(s)/No. of males: 1/6
  Irwin: Decreased alertness, occurrence(s)/No. of males (observation period, min): 1/6
  Irwin: Increased pupil diameter, occurrence(s)/No. of males: 1/6
[3]; 400 mg/kg p.o.
  mean decrease in body temperature from pre-dose: ≤ 2.3 °C
[3]; 600 mg/kg
  Irwin: Abnormal gait (walking low on limbs), occurrence(s)/No. of males: 1/6
  Irwin: Diarrhea, occurrence(s)/No. of males: 1/6
[3]; 600 mg/kg p.o.
  mean decrease in body temperature from pre-dose: ≤ 2.3 °C
[3]; 600 mg/kg, hydrochloride
  Irwin: Abnormal gait (waddling), occurrence(s)/No. of males (observation period, min): 1/6 and 2/6 and 3/6 and 4/6
[4]
  solubility in dimethyl sulfoxide (DMSO): freely soluble
[4]; 5% dextrose (pH 3.0)
  maximum solubility: 40 mg/mL
[4]; neutral and alkaline pH
  solubility in aqueous solution: poorly soluble

## COCC[C@H]1CC2CN3CCc4c([nH]c5ccccc45)[C@](C(=O)OC)(C2)[C@H]13 [18-MC, 18-methoxycoronaridine]
[5]
  binding: binding was seen
[6]
  binding: binding was seen
[7]
  binding: binding was seen
[8]; 200 ng/mL
  % Bound Mean ± SD: 92.1 ± 1.78%
[8]; 600 ng/mL
  % Bound Mean ± SD: 94.8 ± 1.42%
[8]; 5,000 ng/mL
  % Bound Mean ± SD: 93.2 ± 0.153%
[8]; average of 3 concentrations
  Average % Bound Mean ± SD: 93.4 ± 1.36%
[9]; 200 ng/mL
  % Bound Mean ± SD: 98.4 ± 0.643%
[9]; 600 ng/mL
  % Bound Mean ± SD: 97.7 ± 0.100%
[9]; 5,000 ng/mL
  % Bound Mean ± SD: 97.2 ± 0.100%
[9]; average of 3 concentrations
  Average % Bound Mean ± SD: 97.8 ± 0.603%
[10]
  IC50: > 100 µM
[11]
  IC50: > 100 µM
[12]
  protein bound in plasma: 95-98% and 92-98%
